Experimental data reported in patent US9663789B2, “PME-1 as a biomarker to predict and diagnose endometrial and breast cancer and gene silencing of PME-1 to inhibit epithelial to mesenchymal transition” (MEDICAL DIAGNOSTIC LABORATORIES, LLC, priority 2013, dated 2017).
“Also recorded” adds a separate entry of the source.

What was measured:
Type in all cases: cell-based, human
Akt = assay: Western analysis of phospho-Akt in RL95-2 cells; conditions: RL95-2, PME-1 knocked down
Method: We observed a similar trend for the Akt signaling pathway. There was an increase in phosphorylation of Akt on threonine 308 (T308) when PME-1 was over-expressed compared to control. […] PME-1 over-expression specifically increases the phosphorylation of Akt on T308, but not serine 473 (S473).
15 μg of protein was used for western analysis. PME-1 antibody (Santa Cruz) and COXIV (Cell Signaling Technologies) were used for detection of proteins and the blots were developed using chemiluminescence (Pierce ECL Western Blotting Substrate—Thermo Scientific) on the GE ImageQuant LAS 4000. For analysis of Akt, ERK, and β-catenin signaling in tissue culture, western analyses were completed as follows. RL95-2 cells stably infected with lentivirus expressing constructs were selected with puromycin (Invivogen). The cells were incubated with either 50 μM Akt inhibitor (LY 294002, Cell Signaling Technologies) or 40 μM ERK inhibitor (V0126, Cell Signaling Technologies) for 1-2 hours at 37° C. 1.5× Laemelli buffer (0.5 M Tris pH6.8, […], 10% sodium dodecyl sulfate, 100 mM EDTA) was used to prepare cell lysates. 20 μg of protein was used for western analysis. […]

β-catenin = assay: Western analysis of β-catenin in RL95-2 cells
Text: We performed Western blot analysis in RL95-2 cells that were expressing empty vector (Control), over-expressing PME-1 (+PME-1) or expressing shRNA against PME-1 (−PME-1) (SEQ ID NO: 2) to examine the protein stability of β-catenin (FIG. 19A). We observed a decrease in total β-catenin protein in cells that were over-expressing PME-1. This observation is correlated with the predicted ubiquitylation of β-catenin and its degradation.
In another series of study, we performed a similar assay in which cells were treated with 10 μM MG-132 prior to protein extraction. MG-132 is a proteasome inhibitor and therefore allows for the accumulation of phosphorylated β-catenin, which is normally quickly degraded, to be detected by western analysis.
15 μg of protein was used for western analysis. PME-1 antibody (Santa Cruz) and COXIV (Cell Signaling Technologies) were used for detection of proteins and the blots were developed using chemiluminescence (Pierce ECL Western Blotting Substrate—Thermo Scientific) on the GE ImageQuant LAS 4000. For analysis of Akt, ERK, and β-catenin signaling in tissue culture, western analyses were completed as follows. RL95-2 cells stably infected with lentivirus expressing constructs were selected with puromycin (Invivogen). […]

ECC-1 cells = assay: Foci formation assay, ECC-1 cells; conditions: ECC-1 stable clones, with empty FLAG, PP2A, PP4 or PP6 over-expression, 10 days, vs shSCR
Method: FIG. 24 depicts results from a study in which stable clones of ECC-1 cells expressing non-targeting scrambled shRNA (shSCR, black bars) or shPPME-1 (white bars) (SEQ ID NO: 2) and were then transfected with FLAG empty vector, FLAG-PPP2CA, FLAG-PPP4C, or FLAG-PPP6C. Cells (3,000) were plated and were allowed to grow for 10 days. Colonies were then stained with crystal violet and counted. The control cells expressing shSCR and transfected with empty FLAG vector were normalized to 100% foci formation. […] Averages of 6 experiments are plotted and statistical significance was calculated with the Student's T test, where *p<0.05, **p<0.01, ***p<0.001.
We performed a foci formation analysis by transfecting: (i) empty FLAG vector, (ii) FLAG-PPP2CA, (iii) FLAG-PPP4C, or (iv) FLAG-PPP6C into ECC-1 cells that stably expressed either (i) shSCR (non-targeting shRNA, black bars) or (ii) shPPME1 (depletes PME-1 levels, white bars) (FIG. 24).
1,000 cells were plated in a six well tissue culture dish in selection media (to include 5 μg/ml puromycin) (InvivoGen). Cells were allowed to adhere and grow in a 5% CO2, 37° C. incubator for 10 to 14 days. Media was replaced every fourth day. Cells were stained with 1% crystal violet (Sigma Aldrich) for five minutes and rinsed with PBS. Colonies were counted and data is presented as the percentage of change compared to the control. […]

SFRP1 = assay: qRT-PCR of SFRP1 expression in RL95-2 cells; conditions: RL95-2, qRT-PCR normalized to 18S
Method: (§1) Using RL95-2 endometrial cancer cells, we overexpressed PME-1 (FIG. 21A) or depleted PME-1 with shRNA targeted to PME-1 (SEQ ID NO: 2) (FIG. 21B) and confirmed that PME-1 was appropriately expressed.
(§2) Total RNA was extracted with Qiagen RNAEasy kit from RL95-2 cells. cDNA was synthesized using 500 ng-1 μg of RNA and SuperScript VILO c-DNA mix (Life Technologies). Taqman probes and PCR-mix were purchased from Life Technologies. All samples were run in triplicates. Results are representative of three independent experiments in which genes of interest were normalized to the house-keeping gene, 18S or GAPDH, where fold-change was calculated using the ddCt method.

WNT3A = assay: qRT-PCR of WNT3A expression in RL95-2 cells; conditions: RL95-2, qRT-PCR normalized to 18S
Method: as §1, §2

PP2A = PP2A phosphatase assay on RL95-2 whole cell lysates; conditions: RL95-2 cells, vs control (non-targeting)
Text: Because PME-1 is a known inhibitor of PP2A, we confirmed in this study that depletion of PME-1 by siRNA led to an increase in PP2A activity in cells. To do so, we treated RL95-2 cells with either non-targeting siRNA (Control) or siRNA targeted against PPME1 (e.g., SEQ ID NO: 5 and SEQ ID NO: 6). PP2A activity was monitored using a phosphatase assay (R&D Systems Duo IC Set phosphatase assay kit). In the phosphatase assay, we used […] of whole cell extract and followed the manufacturer's recommendations.
Whole cell lysates were used with the DuoSet IC PP2A Phosphatase Assay Kit (R&D Systems). Procedure was carried out as per kit instructions with 500 μg protein and the absorbance was measured at 620 nm. The assay was repeated twice with similar results.

shRNA (SEQ ID NO: 2): lentiviral shRNA against PPME1, target sequence SEQ ID NO: 2 GCAGCGATTATTAGTAGAGTT, bp 289-309; hairpin SEQ ID NO: 8 (CCGGGCAGCGATTATTAGTAGAGTTCTCGAGAACTCTACTAATAATCGCTGCTTTTT; listed as Homo sapiens)
phosphorylation of Akt (Western) (Akt): decrease in phosphorylation of Akt | total β-catenin protein (Western) (β-catenin; RL95-2, absence of MG-132): stabilization of total β-catenin | phosphorylated β-catenin (Western) (β-catenin; RL95-2, treated with 10 μM MG-132, compared to control cells): did not lead to an increase in phosphorylated β-catenin | foci formation (ECC-1 cells; listed as shPPME1 (SEQ ID NO: 2)): significant decrease in foci formation | foci formation (ECC-1 cells; listed as shPPME-1 (SEQ ID NO: 2)): significant decrease in foci formed | SFRP1 expression (SFRP1): significantly increased; also recorded: significant increase in SFRP1 expression | WNT3A expression (WNT3A): significantly decreased | increase in PP2A phosphatase activity (PP2A): 30 fold
